# Assay results taken from the supplement of paper PMC11424490.
# Columns and labels:
# NCI-H2122 [1] = experiment: fitted bottom plateau of viability curve, % of DMSO control; higher = less maximal inhibition; extreme values may be limits of the assay
# Method in brief: (§1)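 The NCI-H2122, SW837 and NCI-H358 cell lines were plated in 384-well format at 800, 500 and 500 cells/well respectively, in 60 µl. After a 24 h wait, single compounds were applied in dose series by acoustic dispensing, and plates were incubated 72 h, or 144 h in the case of SW837. Readout was CellTiter-Glo luminescence on an EnVision reader following 15 min shaking, normalised to DMSO controls. Both the relative IC50 (a mean over replicates) and the lower plateau derive from a four-parameter nonlinear fit.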
# NCI-H358 [2] = experiment: as above
# Method in brief: as §1
# SW837 [3] = experiment: as above
# Method in brief: as §1
# NCI-H2122 [4] = experiment: relative IC50 of cell viability (CellTiter-Glo); higher = less potent
# Method in brief: as §1
# NCI-H358 [5] = experiment: as above
# Method in brief: as §1
# SW837 [6] = experiment: as above
# Method in brief: as §1
Structure (SMILES),fitted bottom plateau of viability curve (NCI-H2122 [1]),fitted bottom plateau of viability curve (NCI-H358 [2]),fitted bottom plateau of viability curve (SW837 [3]),relative IC50 of cell viability (NCI-H2122 [4]),relative IC50 of cell viability (NCI-H358 [5]),relative IC50 of cell viability (SW837 [6])
Cc1c(N)nc([C@H](CC(N)=O)NC[C@H](N)C(N)=O)nc1C(=O)N[C@H](C(=O)N[C@H](C)[C@@H](O)[C@H](C)C(=O)N[C@H](C(=O)NCCc1nc(-c2nc(C(=O)NCCC[S+](C)C)cs2)cs1)[C@@H](C)O)[C@@H](OC1OC(CO)C(O)C(O)C1OC1OC(CO)C(O)C(OC(N)=O)C1O)c1cnc[nH]1 (stereo partly drawn) [Bleomycin] (top concentration tested 10000 nM),45.4%,12.7%,4.05%,1200 nM,1380 nM,438 nM
C=C(F)C(=O)N1CCN(c2nc(OC[C@@H]3CCCN3C)nc3c2CCN(c2cccc4cccc(Cl)c24)C3)C[C@@H]1CC#N [MRTX849 / Adagrasib] (top concentration tested 999.97 nM),7.33%,1.24%,0.0244%,39.7 nM,25.2 nM,304 nM
O=C(/C=C/c1cccc(S(=O)(=O)Nc2ccccc2)c1)NO [Belinostat] (top concentration tested 10000 nM),1.64%,0.339%,0.0148%,274 nM,491 nM,1050 nM
CN(C)C/C=C/C(=O)Nc1cc2c(Nc3ccc(F)c(Cl)c3)ncnc2cc1O[C@H]1CCOC1 [Afatinib] (top concentration tested 10000 nM),2.68%,0%,0%,1220 nM,176 nM,5660 nM
COC(=O)[C@]12CCC(C)(C)C[C@H]1[C@H]1C(=O)C=C3[C@@]4(C)C=C(C#N)C(=O)C(C)(C)[C@@H]4CC[C@@]3(C)[C@]1(C)CC2 [Bardoxolone methyl] (top concentration tested 1000 nM),38.7%,0.645%,0%,319 nM,113 nM,200 nM
COc1cc(N2CCC(N3CCN(C)CC3)CC2)ccc1Nc1ncc(Cl)c(Nc2ccccc2S(=O)(=O)C(C)C)n1 [NVP-TAE684] (top concentration tested 10000 nM),0.655%,3.01%,56.5%,384 nM,922 nM,–
CCS(=O)(=O)Nc1ccc2c(c1)/C(=C(/Nc1ccc(CN3CCCCC3)cc1)c1ccccc1)C(=O)N2 [Hesperadin] (top concentration tested 10000 nM),5.85%,0%,0%,19 nM,43.7 nM,366 nM
NC1(c2ccc(-c3nc4ccn5c(=O)[nH]nc5c4cc3-c3ccccc3)cc2)CCC1 [MK-2206] (top concentration tested 10000 nM),31.8%,33.4%,79.9%,2160 nM,1990 nM,–
C=CC(=O)N1CCN(c2nc(=O)n(-c3c(C)ccnc3C(C)C)c3nc(-c4c(O)cccc4F)c(F)cc23)[C@@H](C)C1 [AMG510 / Sotorasib] (top concentration tested 1000 nM),12%,2.09%,39.6%,43 nM,20.4 nM,57.7 nM
Nc1cc(C(F)(F)F)c(-c2cc(N3CCOCC3)nc(N3CCOCC3)n2)cn1 [BKM120] (top concentration tested 10000 nM),3.49%,7.46%,20.6%,921 nM,1310 nM,1790 nM
C[C@H](Nc1ccc2c(c1)OCCn1cc(N3C(=O)OC[C@H]3C(F)F)nc1-2)C(N)=O [GDC-0077] (top concentration tested 10000 nM),48.4%,23.1%,68.7%,867 nM,712 nM,–
COc1cc2ncnc(Nc3ccc(F)c(Cl)c3)c2cc1OCCCN1CCOCC1 [Gefitinib] (top concentration tested 9999.9 nM),37.8%,19.7%,77.7%,3100 nM,883 nM,–
Cc1cc(C)c(CNC(=O)c2cc(-c3ccc(N4CCNCC4)nc3)cc3c2c(C)cn3C2CCCC2)c(=O)[nH]1 (top concentration tested 50000 nM),24.3%,0.467%,0.31%,17400 nM,11500 nM,10500 nM
CNS(=O)(=O)Nc1nccc(Cc2c(C)c3ccc(Oc4ncccn4)cc3oc2=O)c1F (top concentration tested 10000 nM),1.94%,2.19%,18.8%,130 nM,513 nM,1570 nM
COc1cc(Nc2ncc(F)c(Nc3ccc4c(n3)N(COP(=O)(O)O)C(=O)C(C)(C)O4)n2)cc(OC)c1OC [Fostamatinib] (top concentration tested 9999.9 nM),37.4%,0%,47.6%,8750 nM,2060 nM,1680 nM
Cc1nc(NC(=O)N2CCC[C@H]2C(N)=O)sc1-c1ccnc(C(C)(C)C(F)(F)F)c1 [BYL-719] (top concentration tested 10000 nM),17.8%,10.9%,77.5%,2530 nM,2610 nM,–
Cc1nc(-c2cn3c(n2)-c2ccc(-c4cnn(C(C)(C)C(N)=O)c4)cc2OCC3)n(C(C)C)n1 [Taselisib] (top concentration tested 10000 nM),16.9%,1.64%,86%,290 nM,470 nM,–
C=CC(=O)Nc1cc(Nc2nccc(-c3cn(C)c4ccccc34)n2)c(OC)cc1N(C)CCN(C)C [Osimertinib] (top concentration tested 10000 nM),0.698%,0%,11.4%,2560 nM,1010 nM,2210 nM
O=C(O)CNC(=O)c1c(O)c2ccccc2n(Cc2ccccc2)c1=O [IOX2] (top concentration tested 50000 nM),52.8%,2.49%,52.6%,51400 nM,10800 nM,–

Structure (SMILES),fitted bottom plateau of viability curve (NCI-H2122 [1]),fitted bottom plateau of viability curve (NCI-H358 [2]),fitted bottom plateau of viability curve (SW837 [3]),relative IC50 of cell viability (NCI-H2122 [4]),relative IC50 of cell viability (NCI-H358 [5]),relative IC50 of cell viability (SW837 [6])
CCN1CCN(Cc2ccc(Nc3ncc(F)c(-c4cc(F)c5nc(C)n(C(C)C)c5c4)n3)nc2)CC1 [Abemaciclib] (top concentration tested 10000 nM),35.8%,0%,0%,960 nM,297 nM,5140 nM
COc1ncc(-c2ccc3nccc(-c4ccnnc4)c3c2)cc1NS(=O)(=O)c1ccc(F)cc1F (top concentration tested 50000 nM),2.3%,0.391%,3.09%,43.6 nM,32.3 nM,677 nM
COc1cc2/c(=N/c3ccc(Br)cc3F)nc[nH]c2cc1OCC1CCN(C)CC1 [Vandetanib] (top concentration tested 10000 nM),49.8%,3.22%,82.1%,2070 nM,1340 nM,–
CCc1c2c(nc3ccc(O)cc13)-c1cc3c(c(=O)n1C2)COC(=O)[C@]3(O)CC [SN-38] (top concentration tested 99.894 nM),30.2%,7.46%,2.39%,6.15 nM,6.48 nM,10.4 nM
COc1cc(Nc2c(C#N)cnc3cc(OCCCN4CCN(C)CC4)c(OC)cc23)c(Cl)cc1Cl [Bosutinib] (top concentration tested 10000 nM),23.5%,25.5%,12.1%,3830 nM,1510 nM,4350 nM
O=C1c2c(O)ccc(O)c2C(=O)c2c(NCCNCCO)ccc(NCCNCCO)c21 [Mitoxantrone] (top concentration tested 999.98 nM),28.7%,7.11%,0%,62.4 nM,19.9 nM,79.2 nM
C#Cc1cccc(Nc2ncnc3cc(OCCOC)c(OCCOC)cc23)c1 [Erlotinib] (top concentration tested 10000 nM),29.5%,12.3%,82.2%,4260 nM,1300 nM,–
C[C@@H]1CN(CC(=O)Nc2ccc3c(c2)Cc2cccc(-c4cc(=O)cc(N5CCOCC5)o4)c2S3)C[C@H](C)O1 (top concentration tested 50000 nM),31%,8.33%,0%,11800 nM,9010 nM,39200 nM
CCNC(=O)C[C@@H]1N=C(c2ccc(Cl)cc2)c2cc(OC)ccc2-n2c(C)nnc21 [iBET-762] (top concentration tested 10000 nM),59.6%,53%,37.6%,–,1430 nM,839 nM
CC(C)C[C@H](NC(=O)[C@H](Cc1ccccc1)NC(=O)c1cnccn1)B(O)O [Bortezomib] (top concentration tested 999.9 nM),9.55%,0.755%,0.446%,16.5 nM,9.81 nM,5.91 nM
COc1cc(CCc2cc(NC(=O)c3ccc(N4CC(C)NC(C)C4)cc3)n[nH]2)cc(OC)c1 (stereo not drawn) [AZD4547] (top concentration tested 10000 nM),68%,0%,86.8%,4100 nM,5730 nM,–
Cc1nc(Nc2ncc(C(=O)Nc3c(C)cccc3Cl)s2)cc(N2CCN(CCO)CC2)n1 [Dasatinib] (top concentration tested 10000 nM),78.1%,0%,0%,–,1360 nM,7040 nM
Cc1nc(Nc2n[nH]c3c2CN(C(=O)N[C@H](CN(C)C)c2ccccc2)C3(C)C)c2sccc2n1 (top concentration tested 9999.9 nM),11.9%,5.57%,0%,11.9 nM,18.1 nM,907 nM
CCc1nc(N)nc(N)c1-c1ccc(Cl)cc1 [Pyrimethamine] (top concentration tested 50000 nM),28.9%,45.5%,39%,3430 nM,8340 nM,8070 nM
Cc1c(-c2c(-c3ccc(F)o3)sc3ncnc(O[C@H](Cc4ccccc4OCc4ccnn4CC(F)(F)F)C(=O)O)c23)ccc(OCCN2CCN(C)CC2)c1Cl (top concentration tested 10000 nM),34.5%,0%,101%,3790 nM,3590 nM,–
CC1(C)CCC(c2ccc(Cl)cc2)=C(CN2CCN(c3ccc(C(=O)NS(=O)(=O)c4ccc(N[C@H](CCN5CCOCC5)CSc5ccccc5)c(S(=O)(=O)C(F)(F)F)c4)cc3)CC2)C1 [ABT-263] (top concentration tested 10000 nM),50%,0%,46%,6240 nM,6290 nM,–
Cc1ccc(C(=O)Nc2ccc(CN3CCN(C)CC3)c(C(F)(F)F)c2)cc1C#Cc1cnc2cccnn12 [Ponatinib] (top concentration tested 10000 nM),0.652%,0.0743%,0%,887 nM,2290 nM,1250 nM
COc1cccc2c1C(=O)c1c(O)c3c(c(O)c1C2=O)C[C@@](O)(C(C)=O)C[C@@H]3O[C@H]1C[C@H](N)[C@H](O)[C@H](C)O1 [Daunorubicin] (top concentration tested 1000 nM),17.2%,1.56%,0.5%,120 nM,27.6 nM,111 nM
